One assay addresses IMP-1 (Serratia marcescens, UniProt P52699). The assay is described as follows: biochemical. The format is biochemical. The conditions noted are these: IMP-1 enzyme, CCF2-FA fluorescence assay; read-out: IMP-1 IC50.
Assay [1] has as its system Klebsiella pneumoniae expressing VIM-1 (IHMA599644). The assay is described as follows: Antibiotic potentiation activity: synergistic concentration (MITC95) with imipenem, OD600 growth. The format is cell-based. To be noted: Klebsiella pneumoniae expressing VIM-1 (IHMA599644), 95% growth inhibition. In a few lines:
(§1)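 Bacteria were grown overnight on agar at 35 °C, diluted 1:100 from saline into 1.1× CAMHB, then given compound with or without imipenem (4 μg/ml in assay, optionally 1 μg/ml). Endpoint: absorbance at 22–24 h.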

For assay [2], the system named is Serratia marcescens expressing IMP-1 (CL5741). Described as above. The format is cell-based. To be noted: Serratia marcescens expressing IMP-1 (CL5741), 95% growth inhibition. In a few lines: as §1
Assay [3] has as its system Escherichia coli expressing NDM-1 (CLB30016). Described as above. The format is cell-based. To be noted: Escherichia coli expressing NDM-1 (CLB30016), 95% growth inhibition. Put shortly: as §1
The target of the next assay is NDM-1 (Klebsiella pneumoniae, UniProt C7C422). The assay can be described thus: biochemical. The format is biochemical. To be noted: NDM-1 enzyme, CCF2-FA fluorescence assay; read-out: NDM-1 IC50.
The next assay addresses VIM-1 (Pseudomonas aeruginosa (strain ATCC 15692 / DSM 22644 / CIP 104116 / JCM 14847 / LMG 12228 / 1C / PRS 101 / PAO1), UniProt A0A0F7KYQ8). The assay can be described thus: Enzyme activity: determination of IC50, fluorescence assay with CCF2-FA substrate (VIM-1). The format is biochemical. The conditions noted are these: CCF2-FA fluorescence assay.
[4] abbreviates: VIM-1 enzyme, read-out: VIM-1 IC50.

For orientation: IC50 means the midpoint of a concentration-inhibition curve.

Read-outs that look alike come from different tables or passages of the source.

Sequence of NDM-1 (C7C422 whole entry, looked up, species assumed): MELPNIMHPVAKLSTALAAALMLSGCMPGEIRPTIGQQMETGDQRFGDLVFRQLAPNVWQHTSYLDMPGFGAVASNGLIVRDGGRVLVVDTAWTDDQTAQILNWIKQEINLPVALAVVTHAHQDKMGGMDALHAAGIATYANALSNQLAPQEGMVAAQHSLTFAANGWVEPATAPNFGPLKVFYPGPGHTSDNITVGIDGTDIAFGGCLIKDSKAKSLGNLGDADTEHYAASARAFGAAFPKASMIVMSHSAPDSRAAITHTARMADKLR
Sequence of IMP-1 (P52699 whole entry, looked up): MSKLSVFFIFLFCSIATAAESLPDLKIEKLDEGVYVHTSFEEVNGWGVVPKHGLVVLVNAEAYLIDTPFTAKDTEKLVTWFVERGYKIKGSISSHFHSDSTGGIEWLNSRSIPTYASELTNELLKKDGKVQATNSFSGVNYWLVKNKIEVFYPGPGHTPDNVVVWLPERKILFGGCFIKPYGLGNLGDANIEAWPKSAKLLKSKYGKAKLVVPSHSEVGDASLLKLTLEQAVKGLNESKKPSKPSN

With `NC(=O)c1ccc2cc(-c3cccc(S(N)(=O)=O)c3-c3nn[nH]n3)ccc2n1` [Example 288, 6-(3-sulfamoyl-2-(2H-tetrazol-5-yl)phenyl)quinoline-2-carboxamide], the IC50 amounted to 0.0889 µM at IMP-1, 0.00131 µM at NDM-1 and 0.00978 µM at VIM-1 (setting [4]). The “Klebsiella pneumoniae MITC95” value in assay [1] came out at 75 µM. The “Serratia marcescens MITC95” value in assay [2] was found to be 9.375 µM. Further, in assay [3], the “Escherichia coli MITC95” value was 1.563 µM.

Take `NS(=O)(=O)c1cccc(-c2ccc(OC3CCNCC3)cc2)c1-c1nnn[nH]1` [Example 316, 4′-(piperidin-4-yloxy)-2-(1H-tetrazol-5-yl)-[1,1′-biphenyl]-3-sulfonamide]: the IC50 is 0.0693 µM at IMP-1, 0.00511 µM at NDM-1 and 0.0677 µM at VIM-1 (setting [4]). In addition, the “Klebsiella pneumoniae MITC95” value in assay [1] was 12.5 µM. Further, the “Serratia marcescens MITC95” value in assay [2] was determined as 2.344 µM. In addition, the “Escherichia coli MITC95” value in assay [3] was 0.9766 µM.

Consider `NS(=O)(=O)c1cccc(-c2ccc(CNCCN3CCCC3)cc2)c1-c1nn[nH]n1` [Example 328, 4′-(((2-(pyrrolidin-1-yl)ethyl)amino)methyl)-2-(2H-tetrazol-5-yl)-[1,1′-biphenyl]-3-sulfonamide], for which the half-maximal inhibitory concentration (IC50) at IMP-1 came out at 0.325 µM; at NDM-1 it was 0.0204 µM; on VIM-1 (setting [4]) it was 0.473 µM. Further, the “Klebsiella pneumoniae MITC95” value in assay [1] stood at 125 µM. Also, the “Serratia marcescens MITC95” value in assay [2] was 6.25 µM. Further, the “Escherichia coli MITC95” value in assay [3] is 1.563 µM.

Regarding `CN1CCN(Cc2ccc(-c3cccc(S(N)(=O)=O)c3-c3nnn[nH]3)cc2)CC1` [Example 329, 4′-((4-methylpiperazin-1-yl)methyl)-2-(1H-tetrazol-5-yl)-[1,1′-biphenyl]-3-sulfonamide], the IC50 at IMP-1 was 0.0871 µM; at NDM-1 it was 0.00826 µM; on VIM-1 (setting [4]), 0.683 µM. Besides, in assay [1], the “Klebsiella pneumoniae MITC95” value stood at 200 µM. Also, the “Serratia marcescens MITC95” value in assay [2] is 1.563 µM. For the same molecule, the “Escherichia coli MITC95” value in assay [3] was 0.7813 µM.

Regarding `NS(=O)(=O)c1cccc(-c2ccc(CNCC(=O)NO)cc2)c1-c1nnn[nH]1` [Example 330, N-hydroxy-2-(((3′-sulfamoyl-2′-(1H-tetrazol-5-yl)-[1,1′-biphenyl]-4-yl)methyl)amino)acetamide], the 50% inhibitory concentration (IC50) at IMP-1 was determined as 0.118 µM; on NDM-1, 0.0125 µM; on VIM-1 (setting [4]) it was 0.401 µM. Moreover, in assay [1], the “Klebsiella pneumoniae MITC95” value was found to be 50 µM. Besides, the “Serratia marcescens MITC95” value in assay [2] was found to be 4.688 µM. Moreover, the “Escherichia coli MITC95” value in assay [3] was 1.563 µM.

`CN1CC(NCc2ccc(-c3cccc(S(N)(=O)=O)c3-c3nnn[nH]3)cc2)C1` [Example 331, 4′-(((1-methylazetidin-3-yl)amino)methyl)-2-(1H-tetrazol-5-yl)-[1,1′-biphenyl]-3-sulfonamide]: the IC50 amounted to 0.392 µM at IMP-1, 0.0306 µM at NDM-1 and 1.19 µM on VIM-1 (setting [4]). The “Klebsiella pneumoniae MITC95” value in assay [1] turned out to be 150 µM. Moreover, the “Serratia marcescens MITC95” value in assay [2] was 6.25 µM. Also, in assay [3], the “Escherichia coli MITC95” value was determined as 1.172 µM.

`CN1CCC(NCc2ccc(-c3cccc(S(N)(=O)=O)c3-c3nnn[nH]3)cc2)C1` (stereo not drawn) [Example 332, 4′-(((1-methylpyrrolidin-3-yl)amino)methyl)-2-(1H-tetrazol-5-yl)-[1,1′-biphenyl]-3-sulfonamide]: the 50% inhibitory concentration (IC50) at IMP-1 came out at 0.193 µM; at NDM-1 it was 0.0115 µM; at VIM-1 (setting [4]), 0.554 µM. In addition, the “Klebsiella pneumoniae MITC95” value in assay [1] turned out to be 100 µM. Further, the “Serratia marcescens MITC95” value in assay [2] was determined as 3.125 µM. The “Escherichia coli MITC95” value in assay [3] was 0.5859 µM.

In the case of `CNCc1ccc(-c2cccc(S(N)(=O)=O)c2-c2nnn[nH]2)cc1` [Example 334, 4′-((methylamino)methyl)-2-(1H-tetrazol-5-yl)-[1,1′-biphenyl]-3-sulfonamide], the concentration for half-maximal inhibition (IC50) is 0.385 µM on IMP-1, 0.0106 µM on NDM-1 and 0.129 µM on VIM-1 (setting [4]). Besides, in assay [1], the “Klebsiella pneumoniae MITC95” value was found to be 9.375 µM. For the same molecule, the “Serratia marcescens MITC95” value in assay [2] is 3.125 µM. Besides, the “Escherichia coli MITC95” value in assay [3] worked out at 0.3906 µM.

For `CN(CCO)Cc1ccc(-c2cccc(S(N)(=O)=O)c2-c2nnn[nH]2)cc1` [Example 335, 4′-(((2-hydroxyethyl)(methyl)amino)methyl)-2-(1H-tetrazol-5-yl)-[1,1′-biphenyl]-3-sulfonamide], the figures for the 50% inhibitory concentration (IC50) on IMP-1, on NDM-1 and on VIM-1 (setting [4]) were 0.228 µM, 0.015 µM and 0.227 µM, respectively. In addition, the “Klebsiella pneumoniae MITC95” value in assay [1] turned out to be 25 µM. Further, the “Serratia marcescens MITC95” value in assay [2] was found to be 3.125 µM. In addition, the “Escherichia coli MITC95” value in assay [3] was determined as 0.3906 µM.

Consider `CC(C)(O)C1CN(Cc2ccc(-c3cccc(S(N)(=O)=O)c3-c3nnn[nH]3)cc2)C1` [Example 336, 4′-((3-(2-hydroxypropan-2-yl)azetidin-1-yl)methyl)-2-(1H-tetrazol-5-yl)-[1,1′-biphenyl]-3-sulfonamide], for which the results for the concentration for half-maximal inhibition (IC50) at IMP-1, at NDM-1 and on VIM-1 (setting [4]) were 0.379 µM, 0.034 µM and 0.634 µM, respectively. In assay [1], the “Klebsiella pneumoniae MITC95” value was 100 µM. The “Serratia marcescens MITC95” value in assay [2] was 4.688 µM. In addition, the “Escherichia coli MITC95” value in assay [3] stood at 0.7813 µM.

In the case of `NC(=O)C1CCN(Cc2ccc(-c3cccc(S(N)(=O)=O)c3-c3nnn[nH]3)cc2)C1` (stereo not drawn) [Example 337, 1-((3′-sulfamoyl-2′-(1H-tetrazol-5-yl)-[1,1′-biphenyl]-4-yl)methyl)pyrrolidine-3-carboxamide], the IC50 turned out to be 0.0698 µM on IMP-1, 0.00438 µM at NDM-1 and 0.321 µM at VIM-1 (setting [4]). In addition, in assay [1], the “Klebsiella pneumoniae MITC95” value worked out at 75 µM. Besides, the “Serratia marcescens MITC95” value in assay [2] came to 2.344 µM. Also, the “Escherichia coli MITC95” value in assay [3] amounted to 0.3906 µM.

In the case of `NS(=O)(=O)c1cccc(-c2ccc(CNCCc3nc[nH]n3)cc2)c1-c1nnn[nH]1` [Example 338, 4′-(((2-(1H-1,2,4-triazol-3-yl)ethyl)amino)methyl)-2-(1H-tetrazol-5-yl)-[1,1′-biphenyl]-3-sulfonamide], the half-inhibitory concentration (IC50) on IMP-1 turned out to be 0.0754 µM; on NDM-1, 0.00453 µM; at VIM-1 (VIM-1 IC50, VIM-1 enzyme), 0.152 µM. In assay [1], the “Klebsiella pneumoniae MITC95” value is 25 µM. Besides, in assay [2], the “Serratia marcescens MITC95” value came to 3.125 µM. Moreover, the “Escherichia coli MITC95” value in assay [3] was determined as 0.5859 µM.

As for `NS(=O)(=O)c1cccc(-c2ccc(CNC3CC(F)(F)C3)cc2)c1-c1nnn[nH]1` [Example 339, 4′-(((3,3-difluorocyclobutyl)amino)methyl)-2-(1H-tetrazol-5-yl)-[1,1′-biphenyl]-3-sulfonamide], the IC50 is 0.0423 µM at IMP-1, 0.00454 µM on NDM-1 and 0.611 µM on VIM-1 (setting [4]). The “Klebsiella pneumoniae MITC95” value in assay [1] is above 200 µM. The “Serratia marcescens MITC95” value in assay [2] stood at 1.563 µM. For the same molecule, in assay [3], the “Escherichia coli MITC95” value worked out at 0.5859 µM.

With `NC(=O)CNCc1ccc(-c2cccc(S(N)(=O)=O)c2-c2nnn[nH]2)cc1` [Example 340, 2-(((3′-sulfamoyl-2′-(1H-tetrazol-5-yl)-[1,1′-biphenyl]-4-yl)methyl)amino)acetamide], the IC50 at IMP-1 stood at 0.0902 µM; at NDM-1, 0.00514 µM; at VIM-1 (setting [4]), 0.158 µM. For the same molecule, the “Klebsiella pneumoniae MITC95” value in assay [1] worked out at 25 µM. For the same molecule, the “Serratia marcescens MITC95” value in assay [2] is 1.563 µM. Besides, in assay [3], the “Escherichia coli MITC95” value came out at 0.3906 µM.

The values above are taken from patent publication US9708336B2, “Metallo-beta-lactamase inhibitors” (priority 2014, dated 2017).
